How the values were obtained:
[1] = molecular target: T1, Mitogen-activated protein kinase kinase kinase 5 (Homo sapiens) (UniProt Q99683); experiment: Selectivity interaction (KinomeScan (DiscoverX)) EUB0001049a MAP3K5; settings: at 1 µM
T1 sequence (whole entry): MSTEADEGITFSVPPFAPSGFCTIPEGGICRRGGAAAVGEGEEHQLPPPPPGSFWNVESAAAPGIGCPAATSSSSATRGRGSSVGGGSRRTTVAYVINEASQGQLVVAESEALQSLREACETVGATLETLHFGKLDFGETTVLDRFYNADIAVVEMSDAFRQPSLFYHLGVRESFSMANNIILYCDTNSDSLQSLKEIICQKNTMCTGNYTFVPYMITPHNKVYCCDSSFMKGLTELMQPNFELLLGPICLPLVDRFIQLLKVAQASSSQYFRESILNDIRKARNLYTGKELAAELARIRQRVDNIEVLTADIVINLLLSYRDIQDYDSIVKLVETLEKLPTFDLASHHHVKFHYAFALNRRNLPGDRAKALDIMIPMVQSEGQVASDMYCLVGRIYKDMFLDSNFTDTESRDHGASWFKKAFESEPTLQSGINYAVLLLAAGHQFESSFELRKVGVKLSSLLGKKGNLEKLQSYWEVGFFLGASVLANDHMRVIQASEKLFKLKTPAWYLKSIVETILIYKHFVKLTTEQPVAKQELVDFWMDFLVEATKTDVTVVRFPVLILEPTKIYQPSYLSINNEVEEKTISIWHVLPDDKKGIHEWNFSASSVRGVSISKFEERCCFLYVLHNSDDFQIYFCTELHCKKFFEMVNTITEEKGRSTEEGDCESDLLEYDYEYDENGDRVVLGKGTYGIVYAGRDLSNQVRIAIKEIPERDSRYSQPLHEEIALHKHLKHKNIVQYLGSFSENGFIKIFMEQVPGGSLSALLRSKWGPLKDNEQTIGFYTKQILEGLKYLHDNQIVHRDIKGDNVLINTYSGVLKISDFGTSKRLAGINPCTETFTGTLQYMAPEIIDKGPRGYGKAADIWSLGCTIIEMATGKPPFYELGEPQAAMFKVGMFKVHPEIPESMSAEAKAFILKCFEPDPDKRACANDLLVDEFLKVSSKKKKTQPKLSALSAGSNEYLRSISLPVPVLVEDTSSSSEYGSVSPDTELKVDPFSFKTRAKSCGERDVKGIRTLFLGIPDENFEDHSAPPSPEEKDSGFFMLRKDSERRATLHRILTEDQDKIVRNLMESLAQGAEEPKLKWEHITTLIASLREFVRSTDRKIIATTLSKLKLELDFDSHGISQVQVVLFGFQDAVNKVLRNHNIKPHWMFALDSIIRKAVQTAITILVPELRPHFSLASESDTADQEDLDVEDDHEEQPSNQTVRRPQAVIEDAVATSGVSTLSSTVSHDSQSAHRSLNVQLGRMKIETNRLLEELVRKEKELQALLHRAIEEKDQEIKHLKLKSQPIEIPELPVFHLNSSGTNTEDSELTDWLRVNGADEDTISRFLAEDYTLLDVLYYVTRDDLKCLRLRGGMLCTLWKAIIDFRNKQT

[2] = molecular target: T2, Serine/threonine-protein kinase Sgk3 (Homo sapiens) (UniProt Q96BR1); experiment: Selectivity interaction (KinomeScan (DiscoverX)) EUB0000695a SGK3; settings: at 100 nM
T2 sequence (whole entry): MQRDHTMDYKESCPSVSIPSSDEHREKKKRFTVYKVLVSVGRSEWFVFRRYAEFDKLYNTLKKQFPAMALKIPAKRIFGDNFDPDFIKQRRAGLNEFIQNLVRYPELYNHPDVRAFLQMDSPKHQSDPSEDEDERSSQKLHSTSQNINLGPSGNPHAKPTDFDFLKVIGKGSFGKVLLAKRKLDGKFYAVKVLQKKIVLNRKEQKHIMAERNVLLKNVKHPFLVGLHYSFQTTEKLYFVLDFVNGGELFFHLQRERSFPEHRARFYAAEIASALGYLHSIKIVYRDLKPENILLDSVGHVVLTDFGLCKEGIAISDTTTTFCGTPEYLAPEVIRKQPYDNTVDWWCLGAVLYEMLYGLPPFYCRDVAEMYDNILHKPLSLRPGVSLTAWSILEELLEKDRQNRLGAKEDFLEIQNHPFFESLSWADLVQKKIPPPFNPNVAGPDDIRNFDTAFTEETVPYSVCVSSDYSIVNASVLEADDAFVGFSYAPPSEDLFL

[3] = molecular target: Serine/threonine-protein kinase PAK 4 (Homo sapiens, UniProt O96013); experiment: Selectivity interaction (KinomeScan (DiscoverX)) EUB0000695a PAK4; settings: at 100 nM
Chain of Serine/threonine-protein kinase PAK 4 (O96013 whole entry, looked up): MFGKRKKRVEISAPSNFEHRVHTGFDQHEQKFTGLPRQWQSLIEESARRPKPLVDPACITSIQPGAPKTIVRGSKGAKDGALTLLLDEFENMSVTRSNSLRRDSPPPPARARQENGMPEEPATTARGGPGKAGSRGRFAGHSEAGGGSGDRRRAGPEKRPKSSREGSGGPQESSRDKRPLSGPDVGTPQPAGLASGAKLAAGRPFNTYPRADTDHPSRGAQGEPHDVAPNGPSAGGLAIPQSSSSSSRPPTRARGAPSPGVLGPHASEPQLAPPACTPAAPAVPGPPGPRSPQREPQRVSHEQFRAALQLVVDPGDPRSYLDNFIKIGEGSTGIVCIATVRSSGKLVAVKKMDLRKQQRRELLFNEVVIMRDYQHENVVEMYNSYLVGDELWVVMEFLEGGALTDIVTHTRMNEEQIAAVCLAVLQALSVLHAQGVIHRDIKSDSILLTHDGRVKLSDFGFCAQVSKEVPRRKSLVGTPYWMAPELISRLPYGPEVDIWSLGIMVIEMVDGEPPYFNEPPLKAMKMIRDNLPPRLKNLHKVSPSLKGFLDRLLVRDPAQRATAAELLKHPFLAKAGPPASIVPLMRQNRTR

[4] = molecular target: Activated CDC42 kinase 1 (Homo sapiens, UniProt Q07912); experiment: Selectivity interaction (KinomeScan (DiscoverX)) EUB0000092b TNK2; settings: at 10 µM
Chain of Activated CDC42 kinase 1 (Q07912 whole entry, looked up): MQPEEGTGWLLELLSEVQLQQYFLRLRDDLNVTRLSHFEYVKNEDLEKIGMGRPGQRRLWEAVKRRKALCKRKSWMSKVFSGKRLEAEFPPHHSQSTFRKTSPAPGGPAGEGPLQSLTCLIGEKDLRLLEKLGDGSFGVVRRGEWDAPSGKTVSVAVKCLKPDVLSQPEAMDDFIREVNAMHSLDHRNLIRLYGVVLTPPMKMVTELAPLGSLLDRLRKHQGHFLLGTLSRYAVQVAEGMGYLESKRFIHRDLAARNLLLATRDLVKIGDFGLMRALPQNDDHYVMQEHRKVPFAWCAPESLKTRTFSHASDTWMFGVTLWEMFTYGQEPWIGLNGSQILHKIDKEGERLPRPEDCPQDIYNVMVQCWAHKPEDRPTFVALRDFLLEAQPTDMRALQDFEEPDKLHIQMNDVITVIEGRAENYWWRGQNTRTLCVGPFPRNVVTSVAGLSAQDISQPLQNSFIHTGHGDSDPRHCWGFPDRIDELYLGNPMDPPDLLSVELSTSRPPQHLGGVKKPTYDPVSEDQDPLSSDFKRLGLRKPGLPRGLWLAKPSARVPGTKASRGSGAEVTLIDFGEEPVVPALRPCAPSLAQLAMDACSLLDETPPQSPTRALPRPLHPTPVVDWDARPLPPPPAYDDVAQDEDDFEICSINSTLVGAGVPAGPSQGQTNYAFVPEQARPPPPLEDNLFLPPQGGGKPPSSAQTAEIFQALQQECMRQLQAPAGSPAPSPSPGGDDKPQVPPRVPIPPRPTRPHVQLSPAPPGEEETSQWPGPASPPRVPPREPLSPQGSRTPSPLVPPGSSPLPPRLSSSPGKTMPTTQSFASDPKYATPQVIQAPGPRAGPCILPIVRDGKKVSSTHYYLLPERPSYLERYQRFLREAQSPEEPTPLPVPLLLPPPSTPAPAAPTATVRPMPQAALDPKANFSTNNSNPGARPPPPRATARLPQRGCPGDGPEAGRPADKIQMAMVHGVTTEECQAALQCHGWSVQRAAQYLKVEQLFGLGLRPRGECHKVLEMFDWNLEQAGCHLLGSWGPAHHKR

[5] = molecular target: T3, Cyclin-dependent kinase-like 2 (Homo sapiens) (UniProt Q92772); experiment: Selectivity interaction (KinomeScan (DiscoverX)) EUB0000045b CDKL2
T3 sequence (whole entry): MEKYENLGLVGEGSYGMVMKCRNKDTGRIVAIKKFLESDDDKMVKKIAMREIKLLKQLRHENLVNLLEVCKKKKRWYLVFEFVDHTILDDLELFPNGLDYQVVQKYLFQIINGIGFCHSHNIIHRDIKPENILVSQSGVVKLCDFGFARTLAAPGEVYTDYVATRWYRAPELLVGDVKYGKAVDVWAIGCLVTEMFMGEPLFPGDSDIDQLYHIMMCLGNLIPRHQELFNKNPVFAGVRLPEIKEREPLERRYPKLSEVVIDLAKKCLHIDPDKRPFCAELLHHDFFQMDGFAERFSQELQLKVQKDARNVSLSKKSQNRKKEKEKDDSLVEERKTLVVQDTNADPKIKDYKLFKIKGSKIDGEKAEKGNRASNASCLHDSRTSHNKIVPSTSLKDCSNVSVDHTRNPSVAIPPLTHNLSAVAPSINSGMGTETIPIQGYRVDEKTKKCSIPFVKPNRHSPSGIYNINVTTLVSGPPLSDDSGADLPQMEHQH

[6] = molecular target: Myosin light chain kinase, smooth muscle (Homo sapiens, UniProt Q15746); experiment: Selectivity interaction (KinomeScan (DiscoverX)) EUB0000666a MYLK; settings: at 10 µM
Chain of Myosin light chain kinase, smooth muscle (Q15746 whole entry): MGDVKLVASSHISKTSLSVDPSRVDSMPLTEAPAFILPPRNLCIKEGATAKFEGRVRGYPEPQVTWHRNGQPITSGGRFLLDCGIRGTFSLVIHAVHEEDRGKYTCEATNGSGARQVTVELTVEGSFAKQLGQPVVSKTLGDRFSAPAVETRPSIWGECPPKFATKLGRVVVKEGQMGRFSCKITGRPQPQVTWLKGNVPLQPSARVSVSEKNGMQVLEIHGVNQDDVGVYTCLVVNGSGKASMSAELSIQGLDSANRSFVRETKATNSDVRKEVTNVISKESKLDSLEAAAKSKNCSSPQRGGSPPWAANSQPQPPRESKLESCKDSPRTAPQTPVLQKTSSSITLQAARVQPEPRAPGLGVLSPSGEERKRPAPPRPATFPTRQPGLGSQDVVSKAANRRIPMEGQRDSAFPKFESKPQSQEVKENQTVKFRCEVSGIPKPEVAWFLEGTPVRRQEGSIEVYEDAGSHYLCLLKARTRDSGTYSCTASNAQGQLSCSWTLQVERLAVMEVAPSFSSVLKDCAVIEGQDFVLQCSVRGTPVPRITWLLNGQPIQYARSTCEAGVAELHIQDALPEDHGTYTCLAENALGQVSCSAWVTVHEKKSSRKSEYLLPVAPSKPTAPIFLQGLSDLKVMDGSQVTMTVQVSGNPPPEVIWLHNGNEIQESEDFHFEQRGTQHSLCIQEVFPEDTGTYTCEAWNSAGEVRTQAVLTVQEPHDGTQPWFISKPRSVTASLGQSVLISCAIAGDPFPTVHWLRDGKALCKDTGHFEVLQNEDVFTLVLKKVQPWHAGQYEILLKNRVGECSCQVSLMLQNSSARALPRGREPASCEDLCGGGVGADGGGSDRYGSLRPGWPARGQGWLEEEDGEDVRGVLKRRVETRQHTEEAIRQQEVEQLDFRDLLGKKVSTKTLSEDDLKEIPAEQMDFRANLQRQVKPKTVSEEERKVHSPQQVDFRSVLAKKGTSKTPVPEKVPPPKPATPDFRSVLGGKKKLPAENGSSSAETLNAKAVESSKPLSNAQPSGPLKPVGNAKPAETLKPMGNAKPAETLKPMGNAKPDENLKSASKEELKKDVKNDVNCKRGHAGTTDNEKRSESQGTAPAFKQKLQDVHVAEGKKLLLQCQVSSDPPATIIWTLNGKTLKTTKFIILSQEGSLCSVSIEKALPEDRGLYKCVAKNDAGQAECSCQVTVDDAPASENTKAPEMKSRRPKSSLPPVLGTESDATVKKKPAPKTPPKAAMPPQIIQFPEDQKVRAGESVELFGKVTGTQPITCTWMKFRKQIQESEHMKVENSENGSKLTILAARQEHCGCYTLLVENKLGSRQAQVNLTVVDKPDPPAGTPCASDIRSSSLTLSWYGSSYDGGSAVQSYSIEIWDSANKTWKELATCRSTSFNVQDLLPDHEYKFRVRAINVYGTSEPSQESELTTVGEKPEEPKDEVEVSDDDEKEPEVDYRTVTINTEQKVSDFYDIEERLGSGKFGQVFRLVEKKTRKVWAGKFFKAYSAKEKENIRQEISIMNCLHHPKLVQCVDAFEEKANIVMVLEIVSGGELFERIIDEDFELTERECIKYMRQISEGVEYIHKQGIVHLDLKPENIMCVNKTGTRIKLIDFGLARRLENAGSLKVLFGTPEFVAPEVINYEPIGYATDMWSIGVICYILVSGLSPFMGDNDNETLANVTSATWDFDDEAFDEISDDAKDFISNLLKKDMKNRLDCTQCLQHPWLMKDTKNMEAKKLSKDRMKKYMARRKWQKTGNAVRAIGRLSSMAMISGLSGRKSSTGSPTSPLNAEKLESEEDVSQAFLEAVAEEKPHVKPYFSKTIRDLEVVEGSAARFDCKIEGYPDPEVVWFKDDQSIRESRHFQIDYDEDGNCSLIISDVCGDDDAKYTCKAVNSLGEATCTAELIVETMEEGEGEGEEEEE

`COc1cc(Nc2nc(C)cc(-c3cnn4nc(OC)ccc34)n2)cc(C(F)(F)F)c1` was tested, and the % of control [1] was 80%.

For `Cc1cc(F)c(C(=O)Nc2cccc(-c3nncn3C(C)C)n2)cc1-n1cnc(C2CC2)c1`, the % of control [2] was 100% and the % of control [3] was 99%.

`CCC(=O)N1CCN(c2ccc(-n3c(=O)ccc4cnc5ccc(-c6cnc7ccccc7c6)cc5c43)cc2C(F)(F)F)CC1` was tested, and the % of control [4] was 51%.

Compound `C=CC(=O)Nc1cc(-n2c(=O)ccc3cnc4ccc(-c5ccc(NS(C)(=O)=O)cc5)cc4c32)ccc1C` has a % of control ([5]; at 1 µM) of 93% and a % of control ([5]; at 10 µM) of 93%.

Compound `O=C(NOC[C@H](O)CO)c1ccc(F)c(F)c1Nc1ccc(I)cc1F` has a % of control [6] of 100%.

Source: ChEMBL document CHEMBL5465560, “Selectivity Literature for EUbOPEN Chemogenomic Library” (2024)
